In patent publication US20230312582A1, “Salts Of Nitrogen-Containing Heterocyclic Compound, And Solid Forms Of Salts, Pharmaceutical Composition And Use Thereof” (Wuhan Humanwell Innovative Drug Research And Development …, priority 2020, published 2023):
Converted amounts (≈) assume the structure as drawn. Counter-ions that a name gives are not always drawn. Like-named read-outs stand apart in the source and are kept apart here. One block for each compound: values may come before it.

Key:
[1] = Stability assay of human liver microsome; type: in vitro ADME; conditions: human liver microsomes, NADPH, 37° C.
Method: The stability of human liver microsome was detected by in vitro co-incubation of compounds with human liver microsomes. Test compounds were first prepared as 10 mM stock solutions in DMSO solvent, followed by dilution of the compounds to 0.5 mM using acetonitrile. […] The deep-well plate was taken, […] was added to each well, then 15 μL of pre-warmed 6 mM NADPH solution was added to the plate to start the reaction, and the plate was incubated at 37° C. […] The supernatant was taken after centrifugation, and added with purified water at a ratio of 1:1 for LC-MS/MS detection to obtain the ratio of peak area of compound to peak area of internal standard at each time point. […] T1/2 was calculated using Excel.

[2] = Pharmacokinetic assay (crystal form) in mice; type: in vivo; conditions: male, ICR, mouse, plasma, oral intragastric administration 10 mg/kg
Method: (§1) In vivo pharmacokinetic assay in mice was performed, wherein the used mice were 9 male ICR mice weighing 20-25 g and fasted overnight. 9 mice were taken and orally intragastrically administered with 10 mg/kg of the compound. […] Blood samples were centrifuged at 8000 rpm for 6 min at 4° C., and plasma was collected and stored at −20° C. The plasma at each time point was taken and added with 3-5 times of acetonitrile solution containing the internal standard for mixing, and the mixed solution was subjected to vortex mixing for 1 min, and centrifuging at 4° C. for 10 min at 13000 rpm. The supernatant was taken and added with 3 times of water for mixing. A proper amount of the mixed solution was taken for LC-MS/MS analysis. The major pharmacokinetic parameters were analyzed using WinNonlin 7.0 software and a non-compartmental model.

[3] = In vivo pharmacokinetic assay in mice; conditions: male, ICR, mouse, in vivo
Method: as §1, with “rats” for “mice”, “6” for “9”, “SD rats” for “ICR mice”, “180-240” for “20-25”, “overnight.” for “overnight. 9 mice were taken and orally intragastrically administered with 10 mg/kg of the compound.”
In vivo pharmacokinetic assay in mice was performed, wherein the used mice were 18 male ICR mice weighing 20-25 g and fasted overnight. […] The rest of the procedure was performed in the same manner as in the pharmacokinetic assay in rats.

[4] = In vivo pharmacokinetic assay in rats; conditions: male, SD, rat, in vivo
Method: as §1, with “rats” for “mice”, “6” for “9”, “SD rats” for “ICR mice”, “180-240” for “20-25”, “overnight.” for “overnight. 9 mice were taken and orally intragastrically administered with 10 mg/kg of the compound.”

[5] = Thermodynamic solubility assay; type: physicochemical; conditions: thermodynamic from solid
Method: The compounds were weighed out accurately, added to the prepared phosphate buffered saline at pH 7.4, FeSSIF solution at pH 5.8 and FaSSGF solution at pH 1.6 to prepare a solution at a concentration of 4 mg/mL, and the prepared solution was shaken at 1000 rpm for 1 h, and then incubated overnight at room temperature. The incubated solution was centrifuged at 12000 rpm for 10 min to remove undissolved particles, and the supernatant was transferred to a new centrifuge tube. After the supernatant was diluted properly, the supernatant was added with an acetonitrile solution containing an internal standard, and quantified by adopting a standard curve prepared by the same matrix.

[6] = Polarizing microscope (PLM) image, particle size; type: physicochemical; conditions: room temperature
Text: The polarizing microscope data are acquired by an Axio Lab. A1 upright microscope at room temperature.

[7] = Dynamic solubility in water and three biological vehicles; type: physicochemical; conditions: for Crystal form change: XRPD of solid; for pH: filtrate
Method: The dynamic solubility of the crystal form A of hydrochloride, the crystal form A of fumarate, the crystal form A of benzenesulfonate and the free base crystal form A prepared repeatedly was evaluated in water and three biological vehicles. […] After centrifugation of the samples at each time point (0.45 μm PTFE filter head), the filtrate was determined for HPLC concentration and pH, and the centrifuged solid samples were tested for XRPD.

[8] = Hygroscopicity by dynamic vapor sorption (DVS); type: physicochemical; conditions: for After DVS test Whether the crystal form is changed: 0% RH to 95% RH to 0% RH; for After DVS test Whether the crystal form is changed / Hygroscopicity / Vapor sorption (25° C./80% RH): 25° C.; for Hygroscopicity / Vapor sorption (25° C./80% RH): DVS; for DVS curve vapor sorption: at 0% RH to 80% RH; for Risk evaluation: hygroscopicity evaluation
Method: Dynamic vapor sorption (DVS) curves are acquired on a DVS Intrinsic in SMS (Surface Measurement System). The relative humidity at 25° C. is corrected with the deliquescence points of LiCl, Mg(NO3)2 and KCl.
Hygroscopicity of the crystal form A of hydrochloride, the crystal form A of fumarate, the crystal form A of benzenesulfonate and the free base crystal form A prepared repeatedly was evaluated using a dynamic vapor sorption (DVS) instrument. Starting at 0% relative humidity (0% RH), the test acquired the percentage change of mass of the sample when humidity changed (0% RH to 95% RH to 0% RH) at a constant temperature of 25° C.

Solid stability, 1 week = type: physicochemical; conditions: for Purity (area %): HPLC; for Crystal form change: XRPD
Method: The crystal form A of hydrochloride, the crystal form A of fumarate, the crystal form A of benzenesulfonate and the free base crystal form A prepared repeatedly were placed at 25° C./60% RH and 40° C./75% RH for 1 week, and then the physical and chemical stability of the samples were tested by XRPD and HPLC. […] No significant purity decrease or crystal form transformation occurred in any of the other samples after being placed under 2 conditions for 1 week.

[9] = intravenous injection 1 mg/kg, read-out: Vz
[10] = oral intragastric administration 10 mg/kg
[11] = listed as crystal form A of hydrochloride

Remaining percentage of compound after 30 min of incubation (%) [1]: 41.2% | half-life at 1.5 μM [1]: 24.1 min | AUC(0-t) [2]: 2900 ng·h/mL | Cmax [2]: 2040 ng/mL | Tmax [2]: 15 min | half-life [2]: 49.8 min | AUC(0-t) ([3]; intravenous injection 1 mg/kg): 290 ng·h/mL | clearance ([3]; intravenous injection 1 mg/kg): 57.5 mL/min/kg | half-life ([3]; intravenous injection 1 mg/kg): 20.4 min | Vd [3, 9]: 1.67 L/kg | AUC(0-t) [3, 10]: 2900 ng·h/mL | Cmax [3, 10]: 2040 ng/mL | Tmax [3, 10]: 15 min | half-life [3, 10]: 49.8 min | AUC(0-t) ([4]; intravenous injection 1 mg/kg): 580 ng·h/mL | clearance ([4]; intravenous injection 1 mg/kg): 29.3 mL/min/kg | half-life ([4]; intravenous injection 1 mg/kg): 27 min | Vd [4, 9]: 1.12 L/kg | AUC(0-t) [4, 10]: 4870 ng·h/mL | Cmax [4, 10]: 2590 ng/mL | Tmax [4, 10]: 25.2 min | half-life [4, 10]: 78.6 min | solubility ([5]; aqueous buffer, PBS, pH 7.4, room temperature overnight, read-out: Solubility PBS (pH 7.4)): 6.3 mg/mL (≈ 15.5 mM) | solubility ([5]; fassgf or other biorelevant, FaSSGF, pH 1.6, room temperature overnight, read-out: Solubility FaSSGF (pH 1.6)): 66.5 mg/mL (≈ 164 mM) | solubility ([5]; FeSSIF, pH 5.8, room temperature overnight, read-out: Solubility FeSSIF (pH 5.8)): 18.3 mg/mL (≈ 45.1 mM)
Compound: O=C(COCCc1cnn[nH]1)N1Cc2cnc(NC3Cc4ccccc4C3)nc2C1 [Control compound, reference compound]

Compound: C[C@H](Cc1cnn[nH]1)OCC(=O)N1Cc2cnc(NC3Cc4ccccc4C3)nc2C1 [Crystal form A of fumarate]
particle size [6]: less than 50 μm | Crystal form change ([7]; H2O, 1 h): No | Crystal form change ([7]; H2O, 4 h): No | Crystal form change ([7]; H2O, 24 h): No | Crystal form change ([7]; SGF, 1 h): No | Crystal form change ([7]; SGF, 4 h): No | Crystal form change ([7]; SGF, 24 h): No | pH ([7]; FaSSIF, 1 h): 4.9 | pH ([7]; FaSSIF, 4 h): 4.4 | pH ([7]; FaSSIF, 24 h): 4.2 | pH ([7]; FeSSIF, 1 h): 4.8 | pH ([7]; FeSSIF, 4 h): 4.9 | pH ([7]; FeSSIF, 24 h): 4.8 | pH ([7]; H2O, 1 h): 3.6 | pH ([7]; H2O, 4 h): 3.7 | pH ([7]; H2O, 24 h): 3.6 | pH ([7]; SGF, 1 h): 1.9 | pH ([7]; SGF, 4 h): 1.9 | pH ([7]; SGF, 24 h): 1.9 | After DVS test Whether the crystal form is changed [8]: No | Hygroscopicity [8]: Slightly | Vapor sorption (25° C./80% RH) [8]: 0.60% | DVS curve vapor sorption [8]: less than 0.60% | Risk evaluation [8]: None | Purity/initial purity (%) (Solid stability, 1 week; 25° C./60% RH): 100.1% | Purity (area %) (Solid stability, 1 week; 25° C./60% RH): 99.28 area % | Crystal form change (Solid stability, 1 week; 25° C./60% RH): No | Purity/initial purity (%) (Solid stability, 1 week; 40° C./75% RH): 100.1% | Purity (area %) (Solid stability, 1 week; 40° C./75% RH): 99.33 area % | Crystal form change (Solid stability, 1 week; 40° C./75% RH): No

Compound: C[C@H](Cc1cnn[nH]1)OCC(=O)N1Cc2cnc(NC3Cc4ccccc4C3)nc2C1 [Crystal form A of hydrochloride]
particle size [6]: less than 50 μm | pH ([7]; FaSSIF, 1 h): 5.7 | pH ([7]; FaSSIF, 4 h): 5.5 | pH ([7]; FaSSIF, 24 h): 5.2 | pH ([7]; FeSSIF, 1 h): 4.9 | pH ([7]; FeSSIF, 4 h): 4.9 | pH ([7]; FeSSIF, 24 h): 4.9 | pH ([7]; H2O, 1 h): 2.3 | pH ([7]; H2O, 4 h): 2.2 | pH ([7]; H2O, 24 h): 2.3 | pH ([7]; SGF, 1 h): 1.8 | pH ([7]; SGF, 4 h): 1.8 | pH ([7]; SGF, 24 h): 1.9 | solubility in each system compared with that of the free base crystal form A ([7]; water, SGF, FaSSIF, FeSSIF): significantly improved | After DVS test Whether the crystal form is changed [8]: Yes* | After DVS test Whether the crystal form is changed [8, 11]: changed crystal form | Hygroscopicity [8]: Moderately | Vapor sorption (25° C./80% RH) [8]: 3.85% | Hygroscopicity [8, 11]: had hygroscopicity | DVS curve vapor sorption [8]: less than 3.85% | Risk evaluation [8]: Significantly increased | Purity/initial purity (%) (Solid stability, 1 week; 25° C./60% RH): 99.5% | Purity (area %) (Solid stability, 1 week; 25° C./60% RH): 96.68 area % | Crystal form change (Solid stability, 1 week; 25° C./60% RH): No | Purity/initial purity (%) (Solid stability, 1 week; 40° C./75% RH): 79.9% | XRPD crystallinity (Solid stability, 1 week; 40° C./75% RH): decreased | Purity (area %) (Solid stability, 1 week; 40° C./75% RH): 77.67 area % | Crystal form change (Solid stability, 1 week; 40° C./75% RH): No*
